# Laboratory results reported in patent US11883434B2, “Extracellular vesicles and methods of using” (NUtech Ventures, priority 2017, dated 2024).
# What was measured:
# [1] = test system: human umbilical vein endothelial cells (HUVEC); assay: Uptake of fluorophore-labeled milk exosomes into HUVECs; format: cell-based; settings: for effect on exosome uptake in HUVEC cells: inhibitors or 150 mmol/L carbohydrate competitors
# HUVEC = assay: Cell death (MTT viability) assay with puromycin-loaded exosomes; format: cell-based, human; settings: 1,837 μM puromycin added directly to media, 24 h
# Protocol: The possibility that adherence to cells, rather than uptake into cells, accounted for cell fluorescence was dismissed based on the following cell death-based and enhanced green fluorescent protein (eGFP) protocols. Milk exosomes were suspended in BTXpress electroporation buffer (BTX, Holliston, MA; final concentration 100 […]), containing zero (negative control), 56 μM, or 223 μM puromycin in a 4-mm electroporation cuvette. Exosomes were loaded with puromycin or with a mammalian eGFP expression plasmid by electroporation in a Gene Pulser Xcell electroporator (Bio-Rad) using 250 V, 950 μF, and infinite resistance. Extra-exosomal puromycin was removed by ultracentrifugation and washing, and exosomes were resuspended in 300 μl of exosome-depleted cell culture media. In cell death assays, 100 μl of the suspension were added per well in a 96-well cell culture plate (containing ˜200 μl of media) and cells were cultured for 24 h, when viability was assessed using the MTT assay. Positive controls were created by adding puromycin directly to the media without encapsulation in exosomes, thereby producing a concentration of 1,837 μM puromycin. In eGFP assays, cells were cultured in media in which eGFP-loaded milk exosomes were substituted for exosomes in fetal bovine serum. Expression of eGFP was assessed by using confocal microscopy 3 days after initiation of cultures.
# [2] = test system: human colon carcinoma Caco-2 cells; format: cell-based
# Protocol: Caco-2 cells and IEC-6 cells were seeded at a density of 20,000 and 7000 cells/well, respectively, in 96-well plates, and allowed to adhere for 48 h, when cells were 75% confluent. The exosomes were labeled with the fluorophore, FM 4-64 (Molecular Probes). One microliter of a stock solution of FM 4-64 (5.9 mmol/L) was added to 1 mL of exosome suspension and incubated for 15 min at 37° C., and excess FM 4-64 was removed by ultracentrifugation at 120,000 3 g at 4° C. for 90 min. […] Assays were calibrated by quantifying the fluorescence of a known mass of exosomes labeled with FM 4-64. Exosome uptake was analyzed by measuring the cell fluorescence at 515 (excitation) and 640 nm (emission) using a Biotek FLx800 plate reader (BioTek Instru-ments). Fluorescence readings were corrected for cell autofluorescence by subtracting signals measured in cells incubated with exosome-depleted media. […] In Caco-2 cells, exosome uptake was linear for up to 120 min if transport was measured using nonsaturating substrate concentrations (FIG. 33A): y=0.0012x+0.014 (r2=0.97; P<0.05). In IEC-6 cells exosome uptake was linear for only up to 60 min if transport was measured using nonsaturating substrate concentrations (FIG. 33B): y=0.0033x+0.033 (r2=0.75; P<0.05). […]
# Caco-2 cells = format: in vitro ADME, human
# Protocol: In transwell studies Caco-2 cells were seeded at a density of 9000 cells/well with […] of media in 96-well polycarbonate plates with a pore size of […] (EMD Millipore). The cells were allowed to grow a differentiated monolayer for 21-24 d (33). Caco-2 cell monolayer integrity was formally confirmed using the Lucifer yellow (LY) rejection assay according to the manufacturer's instructions (33). LY fluorescence was measured in the transwell apical and basolateral chambers after 1 h of incubation at 37° C. In parallel experiments, Caco-2 cells were cultured in exosome-depleted media to which milk exosomes were added back to produce a concentration of 275 mg/100 mL exosomal protein in either the upper, apical chamber or the lower, basolateral chamber. Controls were cultured in exosome-depleted media. Aliquots of media were collected from the upper chamber and bottom chamber after 2 h of incubation for analysis of microRNAs. Twenty-five attomoles of internal standard (miSPIKE Synthetic RNA; IDT Technologies) was added to samples before microRNA extraction and subsequent analysis of miR-29b and miR-200c in transwell chambers by quantitative real-time PCR and microRNA-specific primers; miSpike was also used for PCR calibration. Values were corrected for the internal standard to normalize for extraction efficiency.
# [3] = test system: human small intestinal cells (FHs cells); assay: Uptake of milk exosomes into FH cells (protease, glycosidase, lectin, sonication); format: cell-based
# [4] = test system: human macrophage U937 cells; assay: Uptake of milk exosomes into U937 cells; format: cell-based; settings: exosomes treated with the labelled agent
# [5] = FH cells treated with the labelled agent
# [6] = exosomes treated with the labelled agent
Compound,effect on exosome uptake in HUVEC cells [1],"effect on exosome uptake in FH cells [3, 5]","effect on exosome uptake in FH cells [3, 6]",also measured
"C[C@H]1CCC/C=C/[C@@H]2C[C@H](O)C[C@H]2[C@H](O)/C=C/C(=O)O1 [BFA, brefeldin A]",decrease in exosome uptake,–,–,–
O=C[C@H](O)[C@@H](O)[C@@H](O)[C@H](O)CO [D-galactose],significant decrease in exosome uptake,–,–,–
C=C1[C@@H](C)[C@H]2[C@H](Cc3ccccc3)NC(=O)[C@]23[C@H](OC(C)=O)/C=C/[C@@](C)(O)C(=O)[C@@H](C)C/C=C/[C@H]3[C@@H]1O [cytochalasin D],decrease in exosome uptake,–,–,"decrease of exosome transport compared with controls ([1]; HUVEC, exosomes treated with proteinase K, or transport in presence of the labelled agent): 50%; exosome uptake ([1]; cells treated with 5 μg/ml cytochalasin D): 63.5±21.3 % of controls; exosome uptake ([1]; cells treated with 10 μg/ml cytochalasin D): 40.8±22.0 % of controls"
COc1ccc(C[C@H](N)C(=O)N[C@H]2[C@@H](O)[C@H](n3cnc4c(N(C)C)ncnc43)O[C@@H]2CO)cc1 [puromycin],–,–,–,viability (HUVEC): 37 % of puromycin-free controls
Glu-C: Serine protease cleaving at glutamic acid and aspartic acid,–,–,–,"effect on exosome uptake in Caco-2 cells ([2]; Caco-2): significant decrease in exosome transport; transport rates (Vmax) ([2]; exosomes treated with the labelled protease, intestinal transport): 19±0.3 arbitrary units"
Lucifer yellow,–,–,–,rejection rate (Caco-2 cells): 99.8%
"PHA-E: Lectin binding terminal galactose, N-acetylglucosamine and mannose residues of complex glycans",–,decreases the uptake,decreases the uptake,–
SBA: Lectin binding terminal N-acetylgalactosamine and galactopyranosyl residues,–,decreases the uptake,decreases the uptake,–
β-galactosidase,–,decrease in exosome uptake,decrease in exosome uptake,effect on exosome uptake in U937 cells [4]: decrease in exosome uptake
